{
  "source": "patent US11147855B2",
  "about": "“Methods for treating glaucoma or ocular hypertension comprising delivery of prostaglandins to the vitreous humour” (Cella Therapeutics, LLC, priority 2018, dated 2021)",
  "test_system": "African Green monkeys",
  "assay": "IOP after intravitreal injection in African Green monkeys, compared with PBS in the fellow eye",
  "type": "in vivo, African Green monkey",
  "settings": "for animals responding with a reduction in IOP of ≥30%: 4 animals",
  "experimental": "Eight African Green monkeys were screened to identify 4 animals with high-normal IOP. Animals were anesthetized with ketamine 10 mg/kg and Xylazine 0.5 mg/kg. Bimatoprost acid 100 ng in 50 μl was injected intravitreally in one eye through a 30-gauge syringe using a shelved technique, and 50 μl of phosphate buffered saline (PBS) was injected into the fellow eye as a concurrent control on days 0, 1, 2 at 8:30 pm. The bimatoprost acid dose was escalated to 200 ng in 100 μl, with the same volume of PBS given to the fellow eye, on days 3 (8:30 pm) and 4 (5:30 pm). IOP was measured with a Tonovet tonometer at 8:30 am, 11:30 am and 8:30 pm on day 1; 8:30 am, 11:30 am and 5:30 pm on day 4; and at 8:30 am on days 2, 3 and 5. The person measuring the IOP was masked to treatment assignment. Slit lamp exams were performed on day 0, 1 and 5. OCTs were performed at baseline and day 5.",
  "data": [
    {"molecule": "O=C(O)CCC/C=C\\C[C@@H]1[C@@H](/C=C/[C@@H](O)CCc2ccccc2)[C@H](O)C[C@@H]1O", "note": "[bimatoprost acid]", "values": [
      {"measurement": "animals responding with a reduction in IOP of ≥30%", "setting": "100 ng dose intravitreal", "result": "One of four"},
      {"measurement": "reduction in IOP compared with the fellow eye", "setting": "100 ng in 50 μl intravitreal, days 0, 1, 2, animal B392, at 1 timepoint", "result": "≥ 30", "unit": "%"},
      {"measurement": "animals responding with a reduction in IOP of ≥30%", "setting": "200 ng dose intravitreal", "result": "Three of four"},
      {"measurement": "IOP reduced in the treated eye compared with the fellow eye receiving PBS", "setting": "200 ng dose, animal B392, day 5", "result": 52, "unit": "%"},
      {"measurement": "reduction in IOP compared with the fellow eye", "setting": "200 ng in 100 μl intravitreal, days 3 and 4, responding animals, at 1 or more timepoints", "result": "≥ 30", "unit": "%"},
      {"measurement": "IOP response", "setting": "animal B300, 100 ng and 200 ng doses", "result": "did not respond to either dose"}
    ]}
  ]
}
